Non-standard residues stand in square brackets, D forms with d. No end group written: not given here. pY = N[C@@H](Cc1ccc(OP(=O)(O)O)cc1)C(=O)O
Columns and labels:
[1] = tested on: HCT116 xenografted tumors
Protocol: For in vivo study, HCT116 cells were subcutaneously engrafted into NSG mice. After tumors reached an average size of approximately 5 mm, mice were locally treated with 1 mg/kg of FAM-labeled PS-unacet.-STAT3, PS-STAT3-K685R, or PS-acet.-STAT3 peptides (Anaspec) every day for 35 days. Twenty-four hours after the last treatment, tumors were harvested and analyzed by IF staining and 20× immersion objective on LSM 700 confocal microscope (ZEISS). Images were quantified using Zen software (ZEISS).
Supplemental Figure 5 (related to Figure 2). […]
(C to G) Subcutaneous HCT116 xenografts treated with FAM-labeled PS-unacet.-STAT3, PS-STAT3-K685R or PS-acet.-STAT3 peptides every other day at 1 mg/kg for 40 days.
(C) Retention of PS-acet.-STAT3 peptide was visualized with IF staining of tissue sections followed by confocal microscopy. n= 6 tumor tissues. Scales, 50 µm.
(E) The mRNA levels of CASP9, BIRC5 and BCL2L1 from the same tumor tissues described above were assessed by qRT-PCR. SD is shown. n= 3 independent experiments. One-way […]
(F) IF staining of cell proliferation (Ki-67) and vascularization (CD-31) markers upon peptide treatments in HCT116 tumor tissues. Scales; 50 and 100 µm (upper panels). The lower panels show the quantification of Ki-67 and CD-31. n= 6 tumor tissues.
Same protein samples were used from (D).
Aftabizadeh and Li et al., Figure S5

HCT116 cells = assay: Cell proliferation assay (CellTiter-Glo); type: cell-based, human; conditions: HCT116, 10 μg/mL (approximately 1 μM) every day, day 7, CellTiter-Glo
From the text: Figure 3 PS-acet.-STAT3 peptide inhibits STAT3 activity and downregulates the expression of STAT3 targets. (A) Downregulation of STAT3 activity and its downstream target proteins shown in human HCT116 colorectal cancer cells by Western blotting (data represent 1 of the 3 experiments, n = 3). PO-acet.-STAT3 and PS-STAT3-K685R peptides were used in parallel as controls. (B) STAT3 inhibition regulated the expression of proliferation and apoptotic genes, assessed by real-time quantitative PCR. Data present mean ± SD, n = 3 independent experiments, 1-way ANOVA; ***P < 0.005; **P < 0.01. […] For p53 promoter assay, data represent 3 replicates in 3 independent experiments (n = 9). For cell proliferation assay, data represent 3 independent experiments. SD is shown (n = 3). One-way ANOVA; ***P < 0.005; **P < 0.01.
HCT116 cells were seeded in a 96-well plate at a density of 6000/well. Starting the following day, cells were treated every day with 10 μg/mL (approximately 1 μM) PO- or PS-peptides. On day 7, cell proliferation was measured based on ATP production using bioluminescence detection kit for ATP measurement (CellTiter-Glo, Promega), according to manufacturer’s instruction.

STAT3 = STAT3 (Homo sapiens, UniProt P40763); assay: STAT3 protein stability after cycloheximide; type: cell-based; set-up: protein stability of STAT3 in HCT 116 cells; endogenous in cells; host or cells: HCT116; conditions: HCT116, 1 µM peptide pre-incubated 2 hours, 0-2 hours, Western blotting, n = 3
Chain of STAT3 (P40763 whole entry): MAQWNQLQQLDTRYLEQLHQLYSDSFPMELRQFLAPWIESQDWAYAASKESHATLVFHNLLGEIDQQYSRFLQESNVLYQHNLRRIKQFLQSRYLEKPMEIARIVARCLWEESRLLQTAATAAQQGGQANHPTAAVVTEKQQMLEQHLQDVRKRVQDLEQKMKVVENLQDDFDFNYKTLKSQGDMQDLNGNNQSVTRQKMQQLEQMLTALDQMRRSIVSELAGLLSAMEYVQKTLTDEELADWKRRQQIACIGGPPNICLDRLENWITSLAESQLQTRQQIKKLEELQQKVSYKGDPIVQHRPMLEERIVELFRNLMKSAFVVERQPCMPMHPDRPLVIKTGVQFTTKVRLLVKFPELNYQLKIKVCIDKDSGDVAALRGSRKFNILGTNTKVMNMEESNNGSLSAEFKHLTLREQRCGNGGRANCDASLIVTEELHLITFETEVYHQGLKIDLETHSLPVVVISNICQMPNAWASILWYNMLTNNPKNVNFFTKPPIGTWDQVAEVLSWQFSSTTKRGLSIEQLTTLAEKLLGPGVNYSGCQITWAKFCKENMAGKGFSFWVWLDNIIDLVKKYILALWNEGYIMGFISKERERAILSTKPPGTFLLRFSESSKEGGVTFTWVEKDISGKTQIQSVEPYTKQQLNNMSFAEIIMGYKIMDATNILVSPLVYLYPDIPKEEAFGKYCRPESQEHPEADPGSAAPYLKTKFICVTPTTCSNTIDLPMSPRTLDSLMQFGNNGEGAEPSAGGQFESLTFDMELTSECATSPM
Protocol: (H) The protein stability of STAT3 in HCT 116 cells was measured at different time points as indicated following cycloheximide (CHX) treatment. The cells were pre-incubated with 1 µM of PS-acet.-STAT3 pept. for 2 hours before adding […] of CHX. The protein level of STAT3 was detected by Western blotting. The quantification was analyzed by protein band intensity od STAT3 and actin by ImageJ software. n= 3 independent experiments. SD is shown. Two-way ANOVA; ns, not significant.
Aftabizadeh et and Li al., Figure S5

[2] = tested on: IL-6–induced STAT3 phosphorylation; assay: IL-6–induced STAT3 phosphorylation, Western blotting; type: cell-based; conditions: preincubated 2 hours, 20 ng/mL IL-6 for 30 minutes
Protocol: Figure 8 PS-Gp130 and PS-MYC blocking peptides efficiently internalize into tumor cells to exert their functions. (A) For 1 hour 1 μM of PS-conjugated MYC (PS-MYC) and Gp130 (PS-Gp130) were incubated with cancer cells. PS-scramble MYC (PS-SC-MYC) was used as a control for PS-MYC. The peptide uptake was visualized by confocal microscopy and quantified by flow cytometry. Data are representative of 3 independent experiments (n = 3). (B) Upper panel: The binding of PS-Gp130 and STAT3 was examined by immunoprecipitation and Western blotting. PO-Gp130 was used as a control. For 4 hours prior to harvest, 1 μM of peptide was incubated with cells. Lower panel: PS-Gp130 inhibits IL-6–induced phosphorylation of STAT3 and p44/42 but not EGF-mediated signaling. The cells were preincubated with PS-Gp130 for 2 hours and then stimulated with 20 ng/mL of IL-6 or 30 ng/mL of EGF for 30 minutes before harvest and Western blotting. (C) Gene expression of STAT3 targets was examined by quantitative PCR after the treatment with 1 μM of PS-Gp130 with or without IL-6 stimulation as described above. Data shown are 3 independent experiments (n = 3); SD is shown. Unpaired Student’s t test; ***P < 0.005; **P < 0.01; *P < 0.05. (D) A total of 1 μM of PS-SC-MYC or PS-MYC was incubated with cells for 48 hours before the gene expression of MYC targets was examined by quantitative PCR. […]

Substance	tumor progression (proliferation marker Ki-67 and angiogenesis marker CD31) ([1]; HCT116 xenograft, 1 mg/kg local, IF staining)	STAT3 phosphorylation in tumors ([1]; HCT116 xenograft, 1 mg/kg local, immunoprecipitation and Western blotting)	transcriptional regulation (CASP9, BIRC5, BCL2L1 mRNA) in tumors ([1]; HCT116 xenograft, 1 mg/kg local, qRT-PCR)	acetylation of STAT3 in tumors ([1]; HCT116 xenograft, same samples as STAT3 phosphorylation)	cellular retention of peptide in tumors in vivo ([1]; mouse, in vivo, 1 mg/kg)	cell proliferation (HCT116 cells)	protein stability of STAT3 (STAT3)	IL-6–induced STAT3 phosphorylation [2]
PDIPKEEAFGK685(Ac)YCRPESQEHPC-linker-T*C*C*A*T*G*A*G*C*T*T*C*C*T*G*A*T*G*C*T [PS-acet.-STAT3 peptide]	effectively inhibited	effectively inhibited	effectively inhibited	only moderately suppressed	retained in tumors at significantly higher levels	decrease	not affected	
PS-Gp130: PS-conjugated Gp130 peptide (amino acids 901–910) with phospho-Tyr905 (MPKS[pY]LPQTV; also: phosphorothioate oligonucleotide conjugate; UniProt P40189 901-910, looked up, fragment)								selectively inhibited

Source: article PMC7934871 (JCI Insight, 2021)
